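In this assay, cells in 96-well plates receive the compound at five concentrations for 48 hours. Endpoints are linearly interpolated between the surrounding concentrations. The concentration for 50% growth inhibition is given as GI50.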 Activity calls are given as the source filed them. Cut-off read from the data, not from the text of the source: active = GI50 up to about 1.1 µM and inactive = higher. Some results are limits rather than exact numbers.

Holding throughout (test): NCI-60 cell line screen, 48 h
In assay [1] the test system is BT-549.
The test system of assay [2] is CCRF-CEM.
Assay [3] relates to COLO 205.
In assay [4] the test system is DU-145.
Assay [5] has as its system HCT-15.
The subject of assay [6] is HOP-62.
The subject of assay [7] is HOP-92.
Assay [8] concerns IGROV-1.
Assay [9] concerns MDA-N.
Assay [10] deals with Malme-3M.
The test system of assay [11] is NCI-H226.
Assay [12] concerns NCI-H522.
For assay [13], the system named is OVCAR-5.
Assay [14] concerns PC-3.
For assay [15], the system named is SK-OV-3.
For assay [16], the system named is SN12C.
In assay [17] the test system is SNB-75.
Assay [18] deals with T47D.
Assay [19] relates to U-251.
Assay [20] relates to DMS-114.

`O=C1c2ccccc2C(=O)N1[C@@H](Cc1ccccc1)C(=O)n1cccc1CO`: the GI50 in assay [1] is > 100 µM (inactive); in assay [2] it was > 100 µM (inactive); in [3] it was > 100 µM (inactive); in assay [4], > 100 µM (inactive); in [5], over 100 µM; in [6], > 100 µM (inactive). Besides, the GI50 in assay [7], in assay [8], in assay [9], in assay [10], in assay [11] and in assay [12] was > 100 µM (inactive) in each case. In addition, the GI50 in assay [13], in assay [14], in assay [15], in assay [16], in assay [17] and in [18] was > 100 µM (inactive) in each case. Besides, the GI50 in assay [19] was > 100 µM (inactive).

Regarding `Cn1c2cc(Cl)ccc2c2ccc3c(c21)C(=O)C=CC3=O`, the GI50 was 25.6 µM (inactive) in assay [1]; 3.68 µM (inactive) in assay [2]; 13.8 µM (inactive) in [3]; > 57 µM (inactive) in assay [4]; 22.4 µM in assay [5]; > 100 µM (inactive) in assay [6]. In addition, the GI50 was 19 µM (inactive) in assay [7]; 28.4 µM (inactive) in assay [8]; 26.1 µM (inactive) in assay [9]; 16.5 µM (inactive) in assay [10]; > 100 µM (inactive) in assay [11]; 8.13 µM (inactive) in [12]. Besides, the GI50 in assay [13] is 86.5 µM (inactive); in assay [14], 25.8 µM (inactive); in assay [15], > 100 µM (inactive); in [16], 14 µM (inactive); in [17], > 71 µM (inactive); in assay [18] it was 14.1 µM (inactive). In addition, in [19], the GI50 is 45.9 µM (inactive).

For the compound `CCOC(=O)C1=CC(C)(C(=O)OCC)Nc2c(nc(N)[nH]c2=O)N1` (stereo not given), the GI50 was 7.31 µM (inactive) in [1]; > 10 µM (inactive) in assay [2]; > 10 µM (inactive) in assay [3]; > 10 µM (inactive) in assay [4]; over 10 µM in assay [5]; > 10 µM (inactive) in assay [6]. Also, the GI50 in [7], in assay [8], in assay [9], in [10], in assay [11] and in assay [12] was > 10 µM (inactive) each time. The GI50 in assay [13], in [14], in [15], in [16], in [17] and in [18] was > 10 µM (inactive) each time. Moreover, the GI50 in assay [19] is > 10 µM (inactive).

In the case of `COc1cc(CCNC2=CC(=O)c3cccnc3C2=O)ccc1O`, the GI50 in assay [1] is 1.37 µM (inactive); in assay [2], 3.64 µM (inactive); in [3], 1.6 µM (inactive); in assay [4], 1.72 µM (inactive); in [5], 1.18 µM; in [6] it was 1.32 µM (inactive). The GI50 in assay [7] was 5.48 µM (inactive); in assay [8], 1.44 µM (inactive); in assay [9] it was 0.167 µM (active); in assay [10], 1.1 µM (active); in [11] it was 1.84 µM (inactive); in assay [12], 0.721 µM (active). Also, the GI50 in assay [13] is 1.63 µM (inactive); in assay [14], 2.76 µM (inactive); in [15], 2.52 µM (inactive); in assay [16] it was 0.944 µM (active); in [17] it was 0.83 µM (active); in assay [18], 8.51 µM (inactive). Moreover, the GI50 in [19] was 0.766 µM (active).

As for `Cc1cc(Cl)ccc1NC1=NC(=O)C(CC(=O)Nc2ccc(Cl)cc2Cl)S1` (stereo not given), the GI50 in assay [2] is > 100 µM (inactive); in assay [3], > 100 µM (inactive); in assay [20], > 100 µM (inactive); in [5], over 100 µM; in assay [6], > 100 µM (inactive); in [8], > 100 µM (inactive). In addition, the GI50 in assay [10], in assay [13], in [15], in [16], in [17] and in assay [19] was > 100 µM (inactive) in each case.

For the compound `COC(=O)[C@@H]1C[C@H]([Se]c2ccccc2)CN1C(=O)OCc1ccccc1`, the GI50 in [1] was 22.9 µM (inactive); in assay [2], 34.1 µM (inactive); in assay [3] it was 23.4 µM (inactive); in assay [4] it was 47.2 µM (inactive); in [5], 30.5 µM; in [6], 98.6 µM (inactive). In addition, the GI50 in assay [7] is 33.7 µM (inactive); in [8], 50.6 µM (inactive); in assay [9], 19.2 µM (inactive); in assay [10], 26.2 µM (inactive); in assay [11] it was 32.7 µM (inactive); in assay [12], 46.2 µM (inactive). For the same compound, the GI50 in assay [13] is > 100 µM (inactive); in assay [14], 30.3 µM (inactive); in [15], > 100 µM (inactive); in assay [16], 45.5 µM (inactive); in assay [17], 63.4 µM (inactive); in [18] it was 16 µM (inactive). Besides, the GI50 in [19] was 35.2 µM (inactive).

On to `O=C1/C(=N\NC(=S)NC2CCCCC2)c2cc([N+](=O)[O-])ccc2N1CN1CCOCC1`, for which the GI50 in assay [1] was 4.86 µM (inactive); in [2] it was 0.382 µM (active); in [3], 5.32 µM (inactive); in assay [4] it was 11 µM (inactive); in assay [5], 2.39 µM; in [6] it was 10.3 µM (inactive). The GI50 in assay [7] is 1.96 µM (inactive); in assay [8] it was 1.51 µM (inactive); in [9], 6.08 µM (inactive); in assay [10], 11.4 µM (inactive); in assay [11] it was 19.1 µM (inactive); in assay [12], 10 µM (inactive). The GI50 in [13] is 11.3 µM (inactive); in assay [14], 4.7 µM (inactive); in assay [15], 13 µM (inactive); in [16], 3.72 µM (inactive); in [17], 11.5 µM (inactive); in assay [18] it was 2.64 µM (inactive). For the same compound, in [19], the GI50 is 4.52 µM (inactive).

With `CNc1nc(SC)nc2c1c(N)nn2C`, the GI50 is > 100 µM (inactive) in assay [1]; > 100 µM (inactive) in assay [2]; > 100 µM (inactive) in [3]; > 100 µM (inactive) in assay [4]; over 100 µM in assay [5]; > 100 µM (inactive) in assay [6]. In addition, the GI50 in assay [7] is > 100 µM (inactive); in [8], 78 µM (inactive); in [9], > 100 µM (inactive); in assay [10] it was > 100 µM (inactive); in assay [11], > 100 µM (inactive); in assay [12], > 100 µM (inactive). For the same compound, the GI50 in [13] is > 100 µM (inactive); in [14], > 100 µM (inactive); in assay [15], > 100 µM (inactive); in [16], > 100 µM (inactive); in assay [17], 95.7 µM (inactive); in assay [18], > 100 µM (inactive). The GI50 in assay [19] was > 100 µM (inactive).

Source of the values: ChEMBL document CHEMBL1201862, “PubChem BioAssay data set” (2004).
